Experimental data reported in patent US11285218B2, “Degradation of bromodomain-containing protein 9 (BRD9) by conjugation of BRD9 inhibitors with E3 ligase ligand and methods of use” (Dana-Farber Cancer Institute, Inc., priority 2016, dated 2022).

Key:
CRBN-DDB1 = biological target: T1, CRBN-DDB1 (Homo sapiens, UniProt Q96SW2); assay: CRBN-DDB1 ligand-displacement AlphaScreen; type: binding; conditions: purified CRBN-DDB1 ligand displacement
T1 construct: made in house; host or cells: Sf9 cells (Invitrogen)
Procedure: Following a 30 min incubation, 20 uL detection solution containing Streptavidin Donor Beads and Nickel Chelate AlphaLISA® Acceptor Beads diluted to 20 ng/uL in assay buffer was added to each well.

BRD9 [1] = biological target: T2, BRD9 (Homo sapiens, UniProt Q9H8M2); assay: BRD9 degradation / cellular activity (Western blot, cell line not stated); conditions: cell line not given
T2 sequence (Q9H8M2 1-597): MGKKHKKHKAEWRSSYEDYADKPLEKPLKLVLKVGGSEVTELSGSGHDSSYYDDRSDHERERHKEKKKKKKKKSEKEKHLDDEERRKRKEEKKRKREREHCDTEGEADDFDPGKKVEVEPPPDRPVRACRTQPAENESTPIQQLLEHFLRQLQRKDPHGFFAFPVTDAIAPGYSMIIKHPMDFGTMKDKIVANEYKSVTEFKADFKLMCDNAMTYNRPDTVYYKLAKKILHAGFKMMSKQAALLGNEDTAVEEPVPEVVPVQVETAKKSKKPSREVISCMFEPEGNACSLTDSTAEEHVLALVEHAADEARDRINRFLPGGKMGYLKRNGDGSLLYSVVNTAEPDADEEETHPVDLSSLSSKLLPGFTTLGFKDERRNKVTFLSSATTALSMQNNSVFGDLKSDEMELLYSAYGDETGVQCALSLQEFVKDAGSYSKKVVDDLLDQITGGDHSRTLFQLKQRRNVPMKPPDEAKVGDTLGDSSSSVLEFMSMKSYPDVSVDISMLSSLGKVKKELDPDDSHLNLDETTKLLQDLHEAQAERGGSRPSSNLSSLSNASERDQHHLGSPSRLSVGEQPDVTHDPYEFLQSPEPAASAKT

BRD4(1) = BRD4(1) (Homo sapiens, UniProt O60885); assay: BRD4(1) ligand-displacement AlphaScreen; type: binding; parameters: substituting protein and biotin-probe components for BRD4(1) protein at 20 nM final; His tag (inferred from Ni-coated acceptor beads)
[2] = biological target: BRD9:CRBN-DDB1 protein complex (Homo sapiens, UniProt Q96SW2+Q9H8M2); assay: BRD9:CRBN-DDB1 dimerization assay (luminescence); conditions: for BRD9:CRB9-DDB1 AUC / BRD9:CRB9-DDB1 Cmax: luminescence detection of dimerization assay; for formation of the BRD9:CRBN-DDB1 protein complex: relative to unmodified thalidomide, in words
Procedure: To measure this activity, a homogenous luminescence assay was developed to report on compound-induced proximity of BRD9 and CRBN.
To detect CRBN-DDBI/BRD4 dimerization, we adapted bead-based AlphaScreen technology. […] Compounds were then pinned at 100 nL per well from DMSO stock. After 1 incubation at room temperature. Nickel Chelate AlphaLISA Acceptor and Glutathione AlphaLISA Donor beads (PerkinElmer) were diluted in assay buffer to 20 μg/mL and added at 20 μl per well.

BRD9 [3] = biological target: T3, BRD9 (Homo sapiens, UniProt Q9H8M2); assay: BRD9-ligand displacement AlphaScreen; type: binding
T3 construct: A construct of human BRD9 covering residues 134-0245 in the pET28PP vector; made in house; host or cells: E. coli BL21 (DE3)
T3 sequence (Q9H8M2 134-245 limits assumed): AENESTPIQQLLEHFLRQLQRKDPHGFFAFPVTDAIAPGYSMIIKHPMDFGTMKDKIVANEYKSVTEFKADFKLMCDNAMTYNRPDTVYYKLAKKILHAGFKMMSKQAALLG
Procedure: BRD9 assays were performed with minimal modifications from the manufacturer's protocol (PerkinElmer, USA). All reagents were diluted in 50 mM HEPES, 150 mM NaCl, 0.1% w/v BSA, 0.01% w/v Tween20, pH 7.5. […] Plates were spun down at 150×g, and 100 nL of DMSO compound stock was added from pre-diluted plates by pin transfer using a Janus Workstation (PerkinElmer, USA). Under low light, a 2× suspension of Ni-coated Acceptor Beads and Streptavidin Donor Beads, was then added at 10 ul/well to a final concentration of 5 μg/ml by EL406 automated liquid handler (Biotek, USA).

Chain of BRD9:CRBN-DDB1 protein complex (Q96SW2 whole entry, one chain of several): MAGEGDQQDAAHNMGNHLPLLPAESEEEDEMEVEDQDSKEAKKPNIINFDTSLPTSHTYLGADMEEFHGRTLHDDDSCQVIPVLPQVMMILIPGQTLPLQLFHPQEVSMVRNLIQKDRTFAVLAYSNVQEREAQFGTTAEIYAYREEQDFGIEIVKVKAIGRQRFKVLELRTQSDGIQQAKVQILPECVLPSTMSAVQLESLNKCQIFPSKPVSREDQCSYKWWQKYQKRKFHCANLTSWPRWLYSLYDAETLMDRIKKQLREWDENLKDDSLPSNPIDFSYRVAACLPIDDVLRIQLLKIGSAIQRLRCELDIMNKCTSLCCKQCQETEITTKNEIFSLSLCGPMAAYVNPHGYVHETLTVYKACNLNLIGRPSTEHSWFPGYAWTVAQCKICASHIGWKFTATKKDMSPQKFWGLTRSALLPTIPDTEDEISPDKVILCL
Chain of BRD9:CRBN-DDB1 protein complex (Q16531 whole entry partner, one chain of several): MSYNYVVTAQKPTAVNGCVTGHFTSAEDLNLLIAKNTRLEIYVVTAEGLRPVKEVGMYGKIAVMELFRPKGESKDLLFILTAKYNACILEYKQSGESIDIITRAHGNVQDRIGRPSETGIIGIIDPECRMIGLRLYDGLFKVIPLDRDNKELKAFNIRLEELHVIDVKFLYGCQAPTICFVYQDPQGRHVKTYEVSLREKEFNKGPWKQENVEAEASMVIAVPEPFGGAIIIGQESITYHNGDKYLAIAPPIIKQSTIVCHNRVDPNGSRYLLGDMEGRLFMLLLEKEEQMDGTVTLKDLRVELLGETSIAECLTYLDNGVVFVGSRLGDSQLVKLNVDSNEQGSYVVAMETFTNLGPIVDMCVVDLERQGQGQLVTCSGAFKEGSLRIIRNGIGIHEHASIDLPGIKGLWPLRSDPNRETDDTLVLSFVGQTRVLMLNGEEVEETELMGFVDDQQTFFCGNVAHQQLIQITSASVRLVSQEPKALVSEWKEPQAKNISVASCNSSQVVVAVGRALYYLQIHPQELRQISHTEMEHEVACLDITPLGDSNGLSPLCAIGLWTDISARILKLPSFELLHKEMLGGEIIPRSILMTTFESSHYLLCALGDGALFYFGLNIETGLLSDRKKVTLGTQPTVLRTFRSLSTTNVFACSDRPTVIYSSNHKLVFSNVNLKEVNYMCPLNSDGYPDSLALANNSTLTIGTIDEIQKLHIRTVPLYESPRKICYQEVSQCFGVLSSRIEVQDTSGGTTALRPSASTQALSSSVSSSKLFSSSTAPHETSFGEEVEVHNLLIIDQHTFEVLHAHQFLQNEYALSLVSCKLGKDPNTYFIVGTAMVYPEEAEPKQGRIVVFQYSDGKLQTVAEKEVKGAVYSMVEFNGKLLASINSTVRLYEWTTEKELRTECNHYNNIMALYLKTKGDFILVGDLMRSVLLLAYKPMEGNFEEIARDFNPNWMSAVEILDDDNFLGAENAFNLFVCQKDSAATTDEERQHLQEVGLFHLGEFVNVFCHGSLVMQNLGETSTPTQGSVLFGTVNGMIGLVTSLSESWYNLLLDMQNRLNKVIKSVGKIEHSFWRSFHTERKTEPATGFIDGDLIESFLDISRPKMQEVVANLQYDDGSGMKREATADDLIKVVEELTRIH
T1 sequence (Q96SW2 whole entry): as the sequence (Q96SW2 whole entry, one chain of several) above
T1 sequence (Q16531 whole entry partner): as the sequence (Q16531 whole entry partner, one chain of several) above

## COc1cc(-c2cn(C)c(=O)c3cc(C(=N)NC4CCS(=O)(=O)CC4)sc23)ccc1OCC(=O)NCCCCCCCCNc1ccc2c(c1)C(=O)N(C1CCC(=O)NC1=O)C2=O (stereo not shown) [Compound I-9]
CRBN-DDB1
  IC50: 17.6 nM
BRD9 [1]
  BRD9 degradation / cellular potency, in words: superior
BRD4(1)
  IC50: 1110 nM
[2]
  BRD9:CRBN-DDB1 dimerization, comparison in words: superior
  BRD9:CRB9-DDB1 AUC: 46614
  BRD9:CRB9-DDB1 Cmax: 33.7 nM
  formation of the BRD9:CRBN-DDB1 protein complex: significantly induce formation of the complex
BRD9 [3]
  IC50: 11.5 nM

## COc1cc(-c2cn(C)c(=O)c3cc(C(=N)NC4CCS(=O)(=O)CC4)sc23)ccc1OCC(=O)N1CCC(C2CCN(C(=O)COc3cccc4c3C(=O)N(C3CCC(=O)NC3=O)C4=O)CC2)CC1 (stereo not shown) [Compound I-7]
CRBN-DDB1
  IC50: 16 nM
BRD9 [1]
  BRD9 degradation / cellular potency, in words: significant improvement
BRD4(1)
  IC50: 1510 nM
[2]
  BRD9:CRBN-DDB1 dimerization, comparison in words: significant improvement
  BRD9:CRB9-DDB1 AUC: 107794
  BRD9:CRB9-DDB1 Cmax: 54.0 nM
  formation of the BRD9:CRBN-DDB1 protein complex: significantly induce formation of the complex
BRD9 [3]
  IC50: 12.5 nM
